Results on one compound are retold here after PMC4184702 (Pharmacology Research & Perspectives, 2014).

For one series, the target named is T1, 5-HT2C (Homo sapiens, UniProt P28335).
T1 construct: purchased NIMH Psychoactive Drug Screening Program (PDSP)
Nature of the series: PDSP primary binding, 5-HT2C. Particulars: n = 4, read-out: Inhibition (primary binding competition efficacy), 5-HT2C. The procedure: (§1) For experimental details, please refer to the Psychoactive Drug Screening Program (PDSP) web site http://pdsp.med.unc.edu/.
(§2) ^a The default concentration for primary binding experiments is 10 µM (n = 4). ^b Negative inhibition represents a stimulation of binding. ^c BZPR: Benzodiazepine Receptors (rat brain site). ^d DOR: Delta Opioid Receptor; KOR: Kappa Opioid Receptor; MOR: Mu Opioid Receptor. ^e DAT: Dopamine Transporter; NET: Norepinephrine Transporter; SERT: Serotonin Transporter. ^f NMDA: N-methyl-D-aspartate receptor.

The subject of series [1] is NMDA: N-methyl-D-aspartate receptor. Nature of the series: PDSP primary binding, NMDA. Particulars: 10 µM, n = 4. The protocol:
as §1, §2

The next series deals with T2, D1 dopamine receptor (Homo sapiens, UniProt P21728).
T2 construct: purchased NIMH Psychoactive Drug Screening Program (PDSP)
Briefly: PDSP primary binding, D1. Particulars: n = 4, read-out: Inhibition (primary binding competition efficacy), D1. The procedure: as §1, §2

Another series concerns the target T3, CB2 (Homo sapiens, UniProt P34972).
T3 construct: purchased NIMH Psychoactive Drug Screening Program (PDSP)
Nature of the series: PDSP primary binding, CB2. Particulars: n = 4, read-out: Inhibition (primary binding competition efficacy), CB2. The procedure:
as §1, §2

In another series the target is T4, M3 muscarinic receptor (Homo sapiens, UniProt P20309).
T4 construct: purchased NIMH Psychoactive Drug Screening Program (PDSP)
Briefly: PDSP primary binding, M3. Particulars: n = 4, read-out: Inhibition (primary binding competition efficacy), M3. The procedure:
as §1, §2

The target of another series is T5, Oxytocin (Homo sapiens, UniProt P30559).
T5 construct: purchased NIMH Psychoactive Drug Screening Program (PDSP)
Briefly: PDSP primary binding, Oxytocin. Particulars: n = 4, read-out: Inhibition (primary binding competition efficacy), Oxytocin. The procedure: as §1, §2

For another series, the target named is T6, M5 muscarinic receptor (Homo sapiens, UniProt P08912).
T6 construct: purchased NIMH Psychoactive Drug Screening Program (PDSP)
Briefly: PDSP primary binding, M5. Particulars: n = 4, read-out: Inhibition (primary binding competition efficacy), M5. The protocol: as §1, §2

The next series concerns the target T7, α2B adrenergic receptor (Homo sapiens, UniProt P18089).
T7 construct: purchased NIMH Psychoactive Drug Screening Program (PDSP)
Briefly: PDSP primary binding, α2B. Particulars: n = 4, read-out: Inhibition (primary binding competition efficacy), α2B. The protocol: as §1, §2

The target of series [2] is T8, NET: Norepinephrine Transporter (Homo sapiens, UniProt P23975).
T8 construct: purchased NIMH Psychoactive Drug Screening Program (PDSP)
Nature of the series: PDSP primary binding, NET. Particulars: n = 4, read-out: Inhibition (primary binding competition efficacy), NET. The procedure: as §1, §2

Another series deals with T9, human α7-nAChRs (Homo sapiens, UniProt P36544).
T9 construct: expressed in transfected cells; host or cells: SH-EP1 human epithelial cells (SH-EP1-hα7)
Briefly: Whole-cell current recording, SH-EP1-hα7 cells. The series is classed as cell-based. Particulars: 1 μmol/L. The protocol:
Glass microelectrodes made with 3–5 MΩ resistance between pipette and extracellular solutions were used to obtain >1 GΩ seals on the cell surface just prior to conversion into standard whole-cell current recording mode by applying suction to the pipette. After allowing exchange between the pipette solution and the cytosol for 5 10 min, cells with attached pipettes were lifted gently from the bottom of the culture dish via micromanipulation of the pipette to improve kinetics of solution exchange around the cell. Access resistance (Ra) was measured and accepted if it was less than 20 MΩ. Pipette and whole-cell capacitance were both minimized, and series resistance was compensated routinely to 80%. Cells were voltage-clamped at −60 mV, and inward currents induced by indicated nicotinic agonists at the specified concentrations were measured (200B amplifier; Molecular Devices, Sunnyvale, CA). […] Data acquisition and analyses were conducted using pClamp9.2 (Molecular Devices), and results were plotted by using Origin 5.0 (OriginLab Corp., North Hampton, MA). All experiments were performed at room temperature (22 ± 1°C).
The external solution for SH-EP1 cell recording contained 120 mmol/L NaCl, 5 mmol/L KCl, 2 mmol/L MgCl2, 2 mmol/L CaCl2, 25 mmol/L D-glucose, and 10 mmol/L HEPES<< HEPES >>, pH 7.4 (Tris-base). For conventional whole-cell recording, the pipette solution contained 110 mmol/L Tris-phosphate dibasic, 28 mmol/L Tris-base, 11 mmol/L EGTA<< EGTA >>, 2 mmol/L MgCl2, 0.5 mmol/L CaCl2, and 4 mmol/L Na-ATP at pH 7.3. Drugs (standard compounds were obtained from Sigma Chemical, St. Louis, MO) were delivered to the recorded cell by a computer-controlled perfusion system (SF-77B Perfusion Fast Step, Warner Instruments Incorporated, A Harvard Bioscience Company, Holliston, MA), allowing the recorded cell can be completely surrounded by the applied drug within 20 msec. The interval between drug applications (2 min) was optimized specifically to ensure stability of nAChR responsiveness (without functional rundown).

The next series deals with T10, D3 dopamine receptor (Homo sapiens, UniProt P35462).
T10 construct: purchased NIMH Psychoactive Drug Screening Program (PDSP)
Briefly: PDSP primary binding, D3. Particulars: n = 4, read-out: Inhibition (primary binding competition efficacy), D3. The protocol: as §1, §2

The target of a further series is T11, PBR (Rattus norvegicus, UniProt P16257).
T11 construct: purchased NIMH Psychoactive Drug Screening Program (PDSP)
Nature of the series: PDSP primary binding, PBR. Particulars: n = 4, read-out: Inhibition (primary binding competition efficacy), PBR. The protocol:
as §1, §2

The target of a further series is T12, β3 adrenergic receptor (Homo sapiens, UniProt P13945).
T12 construct: purchased NIMH Psychoactive Drug Screening Program (PDSP)
Briefly: PDSP primary binding, β3. Particulars: n = 4, read-out: Inhibition (primary binding competition efficacy), β3. The procedure: as §1, §2

A further series concerns the target T13, 5-HT7 (Homo sapiens, UniProt P34969).
T13 construct: purchased NIMH Psychoactive Drug Screening Program (PDSP)
Briefly: PDSP primary binding, 5-HT7. Particulars: n = 4, read-out: Inhibition (primary binding competition efficacy), 5-HT7. The procedure: as §1, §2

The target of a further series is T14, CYP1A (Homo sapiens, UniProt P05177).
T14 construct: from tissue; host or cells: human liver microsomes (HLM)
Briefly: CYP1A inhibition, HLM, phenacetin substrate. Particulars: 1.0E-05 M. It is filed as in vitro ADME. From the text: Supplement prp20002-e00026-sd1.doc, table 3: Table 3.

The target in a further series is T15, D2 dopamine receptor (Homo sapiens, UniProt P14416).
T15 construct: purchased NIMH Psychoactive Drug Screening Program (PDSP)
Nature of the series: PDSP primary binding, D2. Particulars: n = 4, read-out: Inhibition (primary binding competition efficacy), D2. The protocol: as §1, §2

Structures are written as SMILES. Entries after “also recorded” stand apart in the source; their conditions may differ.

T9 sequence (P36544 23-502): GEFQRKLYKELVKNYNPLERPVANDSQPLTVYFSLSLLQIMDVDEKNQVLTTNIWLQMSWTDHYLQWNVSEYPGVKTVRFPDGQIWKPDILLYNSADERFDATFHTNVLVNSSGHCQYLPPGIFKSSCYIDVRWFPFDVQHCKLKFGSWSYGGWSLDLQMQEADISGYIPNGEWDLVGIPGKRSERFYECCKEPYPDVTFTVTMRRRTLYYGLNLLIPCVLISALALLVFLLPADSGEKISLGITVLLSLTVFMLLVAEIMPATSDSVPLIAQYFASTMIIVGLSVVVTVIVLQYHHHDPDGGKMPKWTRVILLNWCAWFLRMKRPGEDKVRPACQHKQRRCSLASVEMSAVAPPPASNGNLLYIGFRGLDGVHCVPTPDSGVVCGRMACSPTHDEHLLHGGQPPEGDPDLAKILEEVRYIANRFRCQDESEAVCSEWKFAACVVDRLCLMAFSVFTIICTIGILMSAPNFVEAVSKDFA
T6 sequence (P08912 whole entry): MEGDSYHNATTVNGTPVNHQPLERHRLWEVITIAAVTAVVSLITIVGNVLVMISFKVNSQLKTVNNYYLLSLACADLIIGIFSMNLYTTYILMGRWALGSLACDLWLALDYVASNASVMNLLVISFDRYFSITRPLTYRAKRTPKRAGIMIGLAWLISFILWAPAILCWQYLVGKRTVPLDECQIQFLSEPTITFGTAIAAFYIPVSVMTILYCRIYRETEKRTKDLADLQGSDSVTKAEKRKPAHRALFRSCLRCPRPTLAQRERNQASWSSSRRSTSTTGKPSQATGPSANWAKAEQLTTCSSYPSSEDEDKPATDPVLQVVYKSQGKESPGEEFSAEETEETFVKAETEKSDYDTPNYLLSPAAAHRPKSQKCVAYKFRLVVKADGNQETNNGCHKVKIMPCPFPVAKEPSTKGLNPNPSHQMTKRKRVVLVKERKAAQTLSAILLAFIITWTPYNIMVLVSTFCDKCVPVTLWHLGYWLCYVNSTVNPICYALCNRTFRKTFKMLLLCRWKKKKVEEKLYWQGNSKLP
T4 sequence (P20309 whole entry): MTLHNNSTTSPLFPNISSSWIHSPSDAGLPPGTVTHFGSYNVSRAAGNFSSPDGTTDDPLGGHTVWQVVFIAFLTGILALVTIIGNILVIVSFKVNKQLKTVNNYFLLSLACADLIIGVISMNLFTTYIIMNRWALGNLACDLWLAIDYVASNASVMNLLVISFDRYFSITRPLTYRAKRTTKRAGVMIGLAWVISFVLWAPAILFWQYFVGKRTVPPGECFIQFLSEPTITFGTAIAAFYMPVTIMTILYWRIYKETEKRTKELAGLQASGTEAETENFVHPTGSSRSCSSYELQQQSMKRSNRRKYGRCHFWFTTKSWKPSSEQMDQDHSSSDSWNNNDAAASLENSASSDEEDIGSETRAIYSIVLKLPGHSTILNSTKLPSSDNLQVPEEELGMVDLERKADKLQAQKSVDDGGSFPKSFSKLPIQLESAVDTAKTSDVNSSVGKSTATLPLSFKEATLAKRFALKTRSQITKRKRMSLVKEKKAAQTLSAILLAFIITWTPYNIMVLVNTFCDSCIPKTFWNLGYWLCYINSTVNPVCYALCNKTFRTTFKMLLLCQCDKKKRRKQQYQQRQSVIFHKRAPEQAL
T14 sequence (P05177 2-516 limits assumed): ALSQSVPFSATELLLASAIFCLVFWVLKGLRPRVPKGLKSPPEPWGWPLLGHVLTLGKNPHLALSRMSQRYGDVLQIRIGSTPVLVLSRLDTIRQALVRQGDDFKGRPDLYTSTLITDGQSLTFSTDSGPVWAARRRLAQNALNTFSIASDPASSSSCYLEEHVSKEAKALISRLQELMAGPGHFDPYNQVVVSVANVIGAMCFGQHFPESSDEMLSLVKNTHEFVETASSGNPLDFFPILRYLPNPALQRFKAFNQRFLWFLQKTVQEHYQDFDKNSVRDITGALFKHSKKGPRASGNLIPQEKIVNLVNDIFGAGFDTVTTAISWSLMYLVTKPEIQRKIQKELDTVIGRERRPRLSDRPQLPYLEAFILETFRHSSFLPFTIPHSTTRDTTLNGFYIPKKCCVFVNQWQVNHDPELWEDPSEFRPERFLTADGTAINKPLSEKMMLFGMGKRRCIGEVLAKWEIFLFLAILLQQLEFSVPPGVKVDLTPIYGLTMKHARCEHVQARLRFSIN
T8 sequence (P23975 whole entry): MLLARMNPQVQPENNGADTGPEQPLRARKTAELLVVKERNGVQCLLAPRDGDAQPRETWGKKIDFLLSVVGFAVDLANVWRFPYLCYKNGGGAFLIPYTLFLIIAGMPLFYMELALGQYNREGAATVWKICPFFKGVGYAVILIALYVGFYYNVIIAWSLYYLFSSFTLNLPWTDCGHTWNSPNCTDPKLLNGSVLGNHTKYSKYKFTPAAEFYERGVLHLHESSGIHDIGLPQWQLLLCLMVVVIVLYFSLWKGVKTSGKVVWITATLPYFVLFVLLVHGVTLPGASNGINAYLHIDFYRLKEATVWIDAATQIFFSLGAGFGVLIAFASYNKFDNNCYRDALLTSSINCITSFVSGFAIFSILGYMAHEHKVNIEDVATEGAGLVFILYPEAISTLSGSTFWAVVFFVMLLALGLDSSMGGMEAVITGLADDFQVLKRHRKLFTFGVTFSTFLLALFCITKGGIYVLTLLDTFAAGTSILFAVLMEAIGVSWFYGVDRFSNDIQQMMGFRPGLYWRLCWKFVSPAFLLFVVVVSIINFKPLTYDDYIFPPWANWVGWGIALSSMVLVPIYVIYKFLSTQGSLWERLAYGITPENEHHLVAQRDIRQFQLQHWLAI
T15 sequence (P14416 whole entry): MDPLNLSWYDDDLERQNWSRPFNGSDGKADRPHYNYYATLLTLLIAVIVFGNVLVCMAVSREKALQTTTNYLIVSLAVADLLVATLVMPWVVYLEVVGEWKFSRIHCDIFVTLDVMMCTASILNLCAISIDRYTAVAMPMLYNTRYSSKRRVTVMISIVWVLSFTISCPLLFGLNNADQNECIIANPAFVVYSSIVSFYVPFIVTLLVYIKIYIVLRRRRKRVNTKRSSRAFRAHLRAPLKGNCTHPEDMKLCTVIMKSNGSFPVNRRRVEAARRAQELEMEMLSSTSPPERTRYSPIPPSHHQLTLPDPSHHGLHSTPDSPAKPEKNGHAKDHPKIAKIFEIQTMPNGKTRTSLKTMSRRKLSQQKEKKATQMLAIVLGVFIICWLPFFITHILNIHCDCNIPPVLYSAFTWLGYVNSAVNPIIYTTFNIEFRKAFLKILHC
T3 sequence (P34972 whole entry): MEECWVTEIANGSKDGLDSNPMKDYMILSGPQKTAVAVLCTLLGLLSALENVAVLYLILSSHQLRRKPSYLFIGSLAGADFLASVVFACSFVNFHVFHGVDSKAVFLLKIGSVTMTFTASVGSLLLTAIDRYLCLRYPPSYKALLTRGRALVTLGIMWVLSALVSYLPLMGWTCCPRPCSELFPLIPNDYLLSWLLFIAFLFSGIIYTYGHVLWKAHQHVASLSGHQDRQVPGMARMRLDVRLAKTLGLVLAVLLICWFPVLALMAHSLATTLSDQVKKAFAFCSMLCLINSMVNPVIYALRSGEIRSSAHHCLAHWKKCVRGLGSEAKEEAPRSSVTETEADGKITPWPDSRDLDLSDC
T11 sequence (P16257 whole entry): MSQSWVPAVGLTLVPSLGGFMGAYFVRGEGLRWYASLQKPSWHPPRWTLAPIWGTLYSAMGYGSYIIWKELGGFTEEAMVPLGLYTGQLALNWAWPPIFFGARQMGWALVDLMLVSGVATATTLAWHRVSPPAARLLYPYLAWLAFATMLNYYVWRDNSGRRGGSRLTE
T1 sequence (P28335 33-458): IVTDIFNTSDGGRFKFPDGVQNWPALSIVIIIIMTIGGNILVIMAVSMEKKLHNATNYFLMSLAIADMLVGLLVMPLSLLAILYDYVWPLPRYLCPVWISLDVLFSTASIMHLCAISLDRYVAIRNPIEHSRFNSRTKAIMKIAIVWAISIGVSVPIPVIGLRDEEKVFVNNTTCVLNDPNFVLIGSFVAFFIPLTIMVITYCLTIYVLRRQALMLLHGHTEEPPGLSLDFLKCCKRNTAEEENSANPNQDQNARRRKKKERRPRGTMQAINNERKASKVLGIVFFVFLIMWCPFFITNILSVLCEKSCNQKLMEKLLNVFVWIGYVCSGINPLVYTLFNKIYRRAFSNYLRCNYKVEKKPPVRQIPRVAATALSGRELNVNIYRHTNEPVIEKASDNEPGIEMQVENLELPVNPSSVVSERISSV
T5 sequence (P30559 whole entry): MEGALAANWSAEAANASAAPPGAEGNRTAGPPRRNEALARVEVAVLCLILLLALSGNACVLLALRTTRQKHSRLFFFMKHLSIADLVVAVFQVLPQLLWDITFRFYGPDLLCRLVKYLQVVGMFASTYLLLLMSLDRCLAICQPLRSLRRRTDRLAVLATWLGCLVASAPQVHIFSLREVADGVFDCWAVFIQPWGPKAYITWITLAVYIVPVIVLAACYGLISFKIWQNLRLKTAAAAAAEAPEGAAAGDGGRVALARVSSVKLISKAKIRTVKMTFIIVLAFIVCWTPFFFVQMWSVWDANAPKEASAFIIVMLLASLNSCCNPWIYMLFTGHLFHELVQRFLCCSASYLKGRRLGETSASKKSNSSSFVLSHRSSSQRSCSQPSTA
T2 sequence (P21728 whole entry): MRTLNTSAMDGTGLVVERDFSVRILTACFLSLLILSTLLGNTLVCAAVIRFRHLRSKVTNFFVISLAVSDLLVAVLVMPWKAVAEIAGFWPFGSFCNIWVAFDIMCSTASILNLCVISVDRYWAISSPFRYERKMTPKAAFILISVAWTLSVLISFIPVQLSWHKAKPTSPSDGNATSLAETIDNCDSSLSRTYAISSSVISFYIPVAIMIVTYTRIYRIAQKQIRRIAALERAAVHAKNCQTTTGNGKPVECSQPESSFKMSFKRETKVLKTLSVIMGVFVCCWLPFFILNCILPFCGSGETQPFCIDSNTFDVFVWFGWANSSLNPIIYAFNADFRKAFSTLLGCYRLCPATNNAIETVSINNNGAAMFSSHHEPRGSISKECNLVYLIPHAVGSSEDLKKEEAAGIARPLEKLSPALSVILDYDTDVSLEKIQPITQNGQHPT

Broadly, the inhibition is the drop in the measured response relative to a control, in per cent. For `OCCc1cc(-c2cncc(OC[C@@H]3CCN3)c2)on1` [LF-3-88, 2-[5-[5-(2(S)-azetidinylmethoxyl)-3-pyridyl]-3-isoxazolyl]ethanol], the inhibition at 10 µM at 5-HT2C was 22.7%; on D1 dopamine receptor it was 5.8%; on CB2 it was -7.3%; on M3 muscarinic receptor, 0.9%; at Oxytocin, 6.4%; at M5 muscarinic receptor, -9.4%. The inhibition at 10 µM on α2B adrenergic receptor is -17.7%; in series [2], 0.4%; on D3 dopamine receptor, 3%; on PBR, -1.5%; on β3 adrenergic receptor it was 28.3%; on 5-HT7, 1.1%. Moreover, the inhibition at 10 µM at D2 dopamine receptor is 17.2%. Moreover, the “Inhibition (primary binding competition efficacy), NMDA” value in series [1] is on record as -4.7%. The “agonist activity at α7-nAChRs (whole-cell)” value on human α7-nAChRs is given as “no agonist activity”. On human α7-nAChRs (10 mmol/L choline), the “effect of coapplication with choline at α7-nAChRs (whole-cell)” value is on record as “no effect”. Also, the “inhibition of activation by 10 mmol/L choline at α7-nAChRs (whole-cell)” value at human α7-nAChRs (2-min pretreatment) is given as “slightly inhibit; also recorded: only weakly”. Besides, the “CYP1A Inhibition” value on CYP1A is 13%.
